Where two headings read alike, the source gives them in different places.
Assays:
[1] = tested on: Influenza A (H1N1) virus FM1 strain; experiment: Mouse pneumonia model infected with influenza A (H1N1) virus FM1 strain (lung index); assay type: in vivo, ICR mice
Experimental: ICR mice were taken and randomly divided into: normal control group, model control group, ribavirin control group, compound 4, compound F1, compound F2, and compound F3 according to their weight class, and each drug was given in two dosage groups (10 mice in each group). Except for the normal control group, mice were slightly anesthetized with ether and infected with 15 LD50 H1N1 influenza virus liquid FM1 strain by nasal drops (30 μl per animal). The administration was started on the day of infection at 0.2 ml/10 g by gavage each time once a day for 4 days, and the normal control and model control groups were gavaged with distilled water under the same conditions. The mice were weighed and dissected on Day 5, and the lung was weighed to calculate lung index and lung index inhibition. The results were statistically processed using t-test for comparison between groups.
(§1) ICR mice were taken and randomly divided by weight class: normal control group, model control group, oseltamivir control group, compound 4, compound F4, compound F5, compound 5, and compound 7 according to their weight class, and each drug was given in two dosage groups (10 mice in each group). Except for the normal control group, mice were slightly anesthetized with ether and infected with 15 LD50 H1N1 influenza virus liquid (FM1/PR8 strain) by nasal drops (30 μl per each animal). The administration was started on the day of infection at 0.2 ml/10 g by gavage each time once a day for 4 days, and the normal control and model control groups were gavaged with distilled water under the same conditions. The mice were weighed and dissected on Day 5, and lung was weighed to calculate lung index and lung index inhibition. The results were statistically processed using t-test for comparison between groups.
(§2) ICR mice were taken and randomly divided into 9 groups according to the body weight: a normal control group, model control group, oseltamivir control group, and two dosage groups of Compound 9, Compound 12 and Compound 2, 10 mice in each group. Except the normal control group, mice were slightly anesthetized with ether and infected with 15 LD50 H1N1/PR8 influenza virus liquid by nasal drops at 30 μl per mouse. The administration was started on the day of infection, at 0.2 ml/10 g each time by gavage once a day for 4 days, and the normal control and model control groups were gavaged with distilled water under the same conditions. The mice were weighed and dissected on Day 5, and lungs were weighed to calculate lung index and lung index inhibition. The results were statistically processed using t-test for comparison between groups.

[2] = tested on: Influenza A (H1N1) virus PR8 strain; experiment: Mouse pneumonia model infected with influenza A (H1N1) virus PR8 strain (lung index); assay type: in vivo, ICR mice
Experimental: as §1, §2

[3] = tested on: Sendai strain of parainfluenza virus; assay type: in vivo
[4] = tested on: Human Coronavirus 229E (HCoV-229E); experiment: animal or person; assay type: in vivo; settings: for inhibition in vivo at 7.5 mg/kg/day / inhibition in vivo at 15 mg/kg/day / inhibition in vivo at 30 mg/kg/day / inhibition in vivo at 40 mg/kg/day / inhibition in vivo at 50 mg/kg/day: Human coronavirus 229E, in Mus musculus, po, 96 h, read-out: inhibition rate (%)
[5] = Table 13 (Example 25), 7.5 mg/kg/d gavage for 4 days
[6] = Table 13 (Example 25), 15 mg/kg/d gavage for 4 days
[7] = Table 12 (Example 25), 7.5 mg/kg/d gavage for 4 days
[8] = Table 12 (Example 25), 15 mg/kg/d gavage for 4 days
[9] = Table 11 (Example 24), 7.5 mg/kg/d gavage for 4 days
[10] = Table 11 (Example 24), 15 mg/kg/d gavage for 4 days
[11] = Influenza A virus, H1N1, po, 96 h, Table 2 (Example 14), 20 mg/kg gavage once a day for 4 days, read-out: inhibition rate (%)
[12] = Influenza A virus, H1N1, po, 96 h, Table 2 (Example 14), 40 mg/kg gavage once a day for 4 days, read-out: inhibition rate (%)
[13] = Table 2 (Example 14), 20 mg/kg gavage once a day for 4 days
[14] = Table 2 (Example 14), 40 mg/kg gavage once a day for 4 days
[15] = Table 5 (Example 16), 7.5 mg/kg/d gavage for 4 days
[16] = Table 5 (Example 16), 15 mg/kg/d gavage for 4 days
[17] = Table 5 (Example 16), 30 mg/kg/d gavage for 4 days
[18] = Table 10 (Example 23), 7.5 mg/kg/d gavage for 4 days
[19] = Influenza A virus, H1N1, po, 96 h, Table 1 (Example 13), 25 mg/kg gavage once a day for 4 days, read-out: inhibition rate (%)
[20] = Influenza A virus, H1N1, po, 96 h, Table 1 (Example 13), 50 mg/kg gavage once a day for 4 days, read-out: inhibition rate (%)
[21] = Table 1 (Example 13), 25 mg/kg gavage once a day for 4 days
[22] = Table 1 (Example 13), 50 mg/kg gavage once a day for 4 days
[23] = Table 4 (Example 15), 40 mg/kg/d gavage for 4 days
[24] = Table 4 (Example 15), 50 mg/kg/d gavage for 4 days
[25] = Table 13 (Example 25), 27.5 mg/kg/d gavage for 4 days
[26] = Table 3 (Example 14), 27.5 mg/kg gavage once a day for 4 days
[27] = Table 12 (Example 25), 27.5 mg/kg/d gavage for 4 days
[28] = Table 7 (Example 18), 82.5 mg/kg/d gavage for 4 days
[29] = Table 11 (Example 24), 82.5 mg/kg/d gavage for 4 days

COc1ccc(-c2coc3cc(OCCNC4CC4)ccc3c2=O)cc1 [Compound 2]
inhibition rate % [1, 5]: 26.60% | lung index [1, 5]: 0.77 ± 0.074 Lung weight * 100/body weight | inhibition rate % [1, 6]: 72.90% | lung index [1, 6]: 0.73 ± 0.060 Lung weight * 100/body weight | inhibition rate % [2, 7]: 99.05% | lung index [2, 7]: 0.70 ± 0.110 Lung weight * 100/body weight | inhibition rate % [2, 8]: 60.90% | lung index [2, 8]: 0.74 ± 0.091 Lung weight * 100/body weight | inhibition rate % [3, 9]: −18.32% | lung index [3, 9]: 0.86 ± 0.04 Lung weight * 100/body weight | inhibition rate % [3, 10]: 3.27% | lung index [3, 10]: 0.84 ± 0.07 Lung weight * 100/body weight

CC1(NCCOc2ccc3c(=O)c(-c4ccccc4)coc3c2)CC1 [Compound 5]
inhibition in vivo at 20 mg/kg [1, 11]: -25.1% | inhibition in vivo at 40 mg/kg [1, 12]: 8.44% | lung index [1, 13]: 1.20 ± 0.16 | lung index [1, 14]: 1.07 ± 0.21 | inhibition in vivo at 7.5 mg/kg/day [4, 15]: 22.7% | inhibition in vivo at 15 mg/kg/day [4, 16]: -17% | inhibition in vivo at 30 mg/kg/day [4, 17]: -7% | lung index [4, 15]: 0.76 ± 0.08 g lung weight × 100/g body weight | lung index [4, 16]: 0.80 ± 0.10 g lung weight × 100/g body weight | lung index [4, 17]: 0.79 ± 0.08 g lung weight × 100/g body weight

O=c1c(-c2ccccc2)coc2cc(OCCNC3CCCCC3)ccc12 [Compound 7]
inhibition in vivo at 20 mg/kg [1, 11]: 21% | inhibition in vivo at 40 mg/kg [1, 12]: 30.2% | lung index [1, 13]: 1.02 ± 0.12 | lung index [1, 14]: 0.98 ± 0.18 | inhibition in vivo at 7.5 mg/kg/day [4, 15]: -17% | inhibition in vivo at 15 mg/kg/day [4, 16]: 41.6% | inhibition in vivo at 30 mg/kg/day [4, 17]: 15.8% | lung index [4, 15]: 0.80 ± 0.09 g lung weight × 100/g body weight | lung index [4, 16]: 0.74 ± 0.06 g lung weight × 100/g body weight | lung index [4, 17]: 0.76 ± 0.07 g lung weight × 100/g body weight

CC(=O)N(CCOc1ccc2c(=O)c(-c3ccccc3)coc2c1)C1CC1 [Compound 10]
inhibition in vivo at 7.5 mg/kg/day [4, 18]: 25.6% | lung index [4, 18]: 0.85 ± 0.06 g lung weight × 100/g body weight | inhibition rate % [3, 9]: 7.43% | lung index [3, 9]: 0.83 ± 0.06 Lung weight * 100/body weight | inhibition rate % [3, 10]: −16.30% | lung index [3, 10]: 0.86 ± 0.05 Lung weight * 100/body weight

CCC(=O)N(CCOc1ccc2c(=O)c(-c3ccccc3)coc2c1)C1CC1 [Compound 11]
inhibition in vivo at 7.5 mg/kg/day [4, 18]: 14.1% | lung index [4, 18]: 0.87 ± 0.08 g lung weight × 100/g body weight | inhibition rate % [3, 9]: −20.73% | lung index [3, 9]: 0.87 ± 0.04 Lung weight * 100/body weight | inhibition rate % [3, 10]: 6.19% | lung index [3, 10]: 0.83 ± 0.05 Lung weight * 100/body weight

O=c1c(-c2ccccc2)coc2cc(O)ccc12 [Compound F1, reference compound]
inhibition in vivo at 25 mg/kg [1, 19]: 11.1% | inhibition in vivo at 50 mg/kg [1, 20]: 30% | lung index [1, 21]: 1.17 ± 0.09 | lung index [1, 22]: 1.06 ± 0.13 | inhibition in vivo at 40 mg/kg/day [4, 23]: 15.9% | inhibition in vivo at 50 mg/kg/day [4, 24]: 20.4% | inhibition in vivo at 7.5 mg/kg/day [4, 18]: 27.2% | lung index [4, 23]: 0.81 ± 0.06 g lung weight × 100/g body weight | lung index [4, 24]: 0.80 ± 0.05 g lung weight × 100/g body weight | lung index [4, 18]: 0.85 ± 0.07 g lung weight × 100/g body weight

COc1ccc(-c2coc3cc(O[C@@H]4OC(CO)[C@@H](O)C(O)C4O)ccc3c2=O)cc1O (stereo partly drawn) [Compound F2, reference compound]
inhibition in vivo at 25 mg/kg [1, 19]: 17.1% | inhibition in vivo at 50 mg/kg [1, 20]: 19.1% | lung index [1, 21]: 1.13 ± 0.18 | lung index [1, 22]: 1.12 ± 0.17 | inhibition in vivo at 40 mg/kg/day [4, 23]: 1.45% | inhibition in vivo at 50 mg/kg/day [4, 24]: 10.6% | lung index [4, 23]: 0.84 ± 0.05 g lung weight × 100/g body weight | lung index [4, 24]: 0.82 ± 0.06 g lung weight × 100/g body weight

COc1ccc(-c2coc3cc(O)ccc3c2=O)cc1O [Compound F3, reference compound]
inhibition in vivo at 25 mg/kg [1, 19]: 4.07% | inhibition in vivo at 50 mg/kg [1, 20]: -18.7% | lung index [1, 21]: 1.19 ± 0.31 | lung index [1, 22]: 1.31 ± 0.22 | inhibition in vivo at 40 mg/kg/day [4, 23]: 7.71% | inhibition in vivo at 50 mg/kg/day [4, 24]: 1.81% | lung index [4, 23]: 0.83 ± 0.09 g lung weight × 100/g body weight | lung index [4, 24]: 0.84 ± 0.06 g lung weight × 100/g body weight

COCCOc1ccc2c(=O)c(-c3ccccc3)coc2c1 [Compound F4, reference compound]
inhibition in vivo at 20 mg/kg [1, 11]: -9.25% | inhibition in vivo at 40 mg/kg [1, 12]: -29.3% | lung index [1, 13]: 1.14 ± 0.12 | lung index [1, 14]: 1.22 ± 0.13 | inhibition in vivo at 7.5 mg/kg/day [4, 15]: -86% | inhibition in vivo at 15 mg/kg/day [4, 16]: -64% | inhibition in vivo at 30 mg/kg/day [4, 17]: 37.2% | lung index [4, 15]: 0.86 ± 0.07 g lung weight × 100/g body weight | lung index [4, 16]: 0.84 ± 0.07 g lung weight × 100/g body weight | lung index [4, 17]: 0.75 ± 0.13 g lung weight × 100/g body weight

CC(=O)NCCOc1ccc2c(=O)c(-c3ccccc3)coc2c1 [Compound F5, reference compound]
inhibition in vivo at 20 mg/kg [1, 11]: -31.3% | inhibition in vivo at 40 mg/kg [1, 12]: 0.35% | lung index [1, 13]: 1.22 ± 0.11 | lung index [1, 14]: 1.10 ± 0.24 | inhibition in vivo at 7.5 mg/kg/day [4, 15]: -41% | inhibition in vivo at 15 mg/kg/day [4, 16]: -72% | inhibition in vivo at 30 mg/kg/day [4, 17]: 17% | lung index [4, 15]: 0.82 ± 0.08 g lung weight × 100/g body weight | lung index [4, 16]: 0.85 ± 0.08 g lung weight × 100/g body weight | lung index [4, 17]: 0.77 ± 0.11 g lung weight × 100/g body weight

CCOC(=O)C1=C[C@@H](OC(CC)CC)[C@H](NC(C)=O)[C@@H](N)C1 [Oseltamivir, Oseltamivir phosphate, reference compound]
inhibition in vivo at 27.5 mg/kg ([1]; Influenza A virus, H1N1, po, 96 h, Table 2 (Example 14), 27.5 mg/kg gavage once a day for 4 days, read-out: inhibition rate (%)): 62.1% | lung index ([1]; Table 2 (Example 14), 27.5 mg/kg gavage once a day for 4 days): 0.86 ± 0.21 | inhibition rate % [1, 25]: 64.57% | lung index [1, 25]: 0.74 ± 0.065 Lung weight * 100/body weight | inhibition rate % [2, 26]: 58.89% | inhibition rate % [2, 27]: 88.97% | lung index [2, 27]: 0.71 ± 0.069 Lung weight * 100/body weight

NC(=O)c1ncn([C@@H]2O[C@H](CO)[C@@H](O)[C@H]2O)n1 [Ribavirin, ribavirin, reference compound]
inhibition in vivo at 82.5 mg/kg ([1]; Influenza A virus, H1N1, po, 96 h, Table 1 (Example 13), 82.5 mg/kg gavage once a day for 4 days, read-out: inhibition rate (%)): 49.6% | lung index ([1]; Table 1 (Example 13), 82.5 mg/kg gavage once a day for 4 days): 0.96 ± 0.16 | inhibition rate % [2, 26]: 58.89% | lung index [2, 26]: 0.84 ± 0.10 | inhibition rate % [3, 28]: 42.06% | lung index [3, 28]: 0.70 ± 0.03 lung weight/100 g body weight | inhibition rate % [3, 29]: 57.66% | lung index [3, 29]: 0.77 ± 0.04 Lung weight * 100/body weight
